Laboratory results as given in patent US20200399308A1, “COMPOUNDS AND METHODS FOR ELICITING ANTIMICROBIAL ACTIVITY” (Technion Research & Development Foundation Limited, priority 2018, published 2020).
Values after ≈ are worked out from the molar mass of the structure shown. Like-named read-outs stand apart in the source and are kept apart here. Non-standard residues stand in square brackets, D forms with d. Residues, ends and D or L forms follow the SMILES beside them. *: point of attachment. 12Ado = NCCCCCCCCCCCC(=O)O; Decanoyl = CCCCCCCCCC(=O)*

Experiments:
[1] = Charge at physiological pH (Q); type: physicochemical
[2] = Hydrophobicity (H) by HPLC elution from C18 column; type: physicochemical; conditions: percentage of acetonitrile required for elution
[3] = Critical aggregation concentration by light scattering in PBS; type: physicochemical; conditions: light scattering in phosphate-buffered saline
Experimental: (§1) Organization of the compounds in aqueous solution was assessed by light-scattering measurements in phosphate buffered saline (PBS; 10 mM Na2HPO4, 150 mM NaCl, pH=7.0). Hemolytic assays were performed as described elsewhere, using fresh mouse red blood cells.
(§2) The mean value (±SD) is shown for Compound C; Minimum inhibitory concentration (MIC) of compounds required to inhibit bacterial proliferation after overnight incubation.

Hemolytic assay = type: cell-based; conditions: fresh mouse red blood cells (1%); hemolysis of 50% of mouse red blood cells (1%) after 3 hours in PBS; read-out: LC50, fifty percent lethal concentration (hemolysis)
Experimental: as §1, §2

Escherichia coli 25922 [4] = test: Minimal inhibitory concentration; type: cell-based
Experimental: (§3) Minimal inhibitory concentrations (MICs) were determined as previously described. […] MICs were determined by microdilution susceptibility testing in 96-well plates (by Nunc) using inocula of 10^5 bacteria per ml. Cell populations were evaluated by optical density measurements at 620 nm and were calibrated against a set of standards. Hundred (100) μl of a bacterial suspension were added to 100 μl of culture medium (control) or to 100 μl of culture medium containing various tested compound concentrations in 2-fold serial dilutions. Inhibition of proliferation was determined by optical density measurements at 620 nm after an incubation period of 24 hours at 37° C. Data were obtained from ≥2 independent experiments performed in duplicate.
as §2

Escherichia coli ML35p = test: Minimal inhibitory concentration; type: cell-based; conditions: Ec ML35p, overnight incubation
Experimental: as §3, §2

[5] = test system: Klebsiella pneumoniae 1287; test: Minimal inhibitory concentration; type: cell-based
Experimental: as §3, §2

[6] = test system: Klebsiella pneumoniae C2 (carbapenemase 2-producing strain); test: Minimal inhibitory concentration; type: cell-based
Experimental: as §3, §2

[7] = test system: Pseudomonas aeruginosa 11662; test: Minimal inhibitory concentration; type: cell-based
Experimental: as §3, §2

[8] = test system: Pseudomonas aeruginosa 11816; test: Minimal inhibitory concentration; type: cell-based
Experimental: as §3, §2

[9] = test system: Salmonella enterica serovar Choleraesuis 7308; test: Minimal inhibitory concentration; type: cell-based
Experimental: as §3, §2

[10] = test system: Salmonella enterica serovar Typhimurium 14028; test: Minimal inhibitory concentration; type: cell-based
Experimental: as §3, §2

[11] = test system: Escherichia coli mutant ML-35p; test: Outer and cytoplasmic membrane permeabilization (nitrocefin / ONPG); type: cell-based; conditions: E. coli ML-35p, buffer, 16 minutes after addition
Experimental: Membrane permeabilization was assessed using E. coli ML-35p as described elsewhere, to monitor the ability of the compounds to perturb the outer and/or cytoplasmic membranes. Reported data were obtained from ≥2 independent experiments performed in duplicate.
Additional support for this view was obtained by comparing the compounds' susceptibility to damage gram-negative bacteria membranes, using the E. coli mutant ML-35p. Widely described in the literature, the mutant was considered herein as representative of all gram-negative bacteria, rather than a specific species. This mutant is constitutive for cytoplasmic β-galactosidase, lacks lactose permease, and expresses a plasmid-encoded periplasmic β-lactamase. Two chromogenic reporter molecules (nitrocefin and 2-nitrophenyl β-d-galactopyranoside, respectively, absorbing at 486 and 420 nm) were used to monitor permeabilization of the outer membrane and/or cytoplasmic membrane in a single assay.

Escherichia coli 25922 [12] = test: Mouse peritonitis-sepsis model; type: in vivo; conditions: neutropenic ICR mice; erythromycin 100 mg/kg s.c. + Compound B […] s.c.
Experimental: A mouse peritonitis-sepsis model was created as described elsewhere. Infection was obtained after intraperitoneal injection of bacteria from a logarithmic-phase culture. Infected mice were treated subcutaneously. The doses were selected to allow comparison with the reference compound and to remain below the maximum tolerated dose after double-dose administration. […] Briefly, mouse peritonitis sepsis model for in vivo studies were performed using male ICR mice ([…]) obtained from Envigo Laboratories (Rehovot, Israel). […] Infection was obtained by intraperitoneal injection of a logarithmic phase culture of E. coli 25922 (1.3±0.2×10^6 CFU permouse in 0.3 ml PBS). […] Infection control mice were injected with the PBS vehicle. Mouse survival was monitored for up to 7 days after treatment. Statistical analyses were performed by paired Student's t test, at α=0.05.

E. coli strain 14182 = test: Checkerboard antibiotic MIC with Compound B; type: cell-based, Escherichia coli
Experimental: as §3
(§4) Shown in parentheses are calculated sensitization factor, defined as antibiotic's MICs ratio (in absence vs. presence of Compound B) at specified Compound B concentration.

E. coli strain 14384 = test: Checkerboard antibiotic MIC with Compound B; type: cell-based, Escherichia coli
Experimental: as §3, §4

E. coli strain 16327 = test: Checkerboard antibiotic MIC with Compound B; type: cell-based, Escherichia coli
Experimental: as §3, §4

E. coli strain 25922 = test: Checkerboard antibiotic MIC with Compound B; type: cell-based, Escherichia coli
Experimental: as §3, §4

E. coli strain 35218 = test: Checkerboard antibiotic MIC with Compound B; type: cell-based, Escherichia coli
Experimental: as §3, §4

E. coli 25922 [13] = test: Simultaneous versus delayed drug exposure assay in LB; type: cell-based, Escherichia coli; conditions: Compound B 10 μM with 0.06 μg/ml rifampin or 4 μg/ml erythromycin, LB
Experimental: (§5) Time-kill kinetics data were determined using 100 μl of bacterial suspension (10^6 CFU/ml), which was added to […] LB containing none of or specified concentrations of the tested compound, antibiotic, and combinations thereof. After the specified exposure time points (37° C. under shaking), aliquots were formed, subjected to serial 10-fold dilutions in saline (0.85% NaCl), and plated for bacterial enumeration after additional 24 hours incubation at 37° C. Time-kill experiments in human and mouse plasma were performed as described elsewhere. The effects of drug delay were assessed in LB, except that bacteria were pre-incubated with the tested compound or antibiotic for the specified time points, centrifuged, and resuspended in fresh LB-containing antibiotic or the tested compound, respectively, and incubated for 3 hours before CFU enumeration.

E. coli 25922 [14] = test: Time-kill kinetics in broth versus plasma; type: cell-based, Escherichia coli
Experimental: as §5

[15] = Subcutaneous 25 mg/kg, published data, cited from earlier work
Escherichia coli 25922 [16] = test: Mouse thigh infection model; type: in vivo; conditions: normal mice inoculated intramuscularly, treated s.c. 1 hour thereafter, CFU 24 hours post-treatment
Experimental: Mouse thigh infection model was afforded from normal ICR mice, which were inoculated intramuscularly and treated subcutaneously 1 hour thereafter with a tested compound or polymyxin B (PMB; Sigma-Aldrich) as described elsewhere. P values were calculated using a 1-tailed t test (assuming unequal variance). A P value of <0.05 is considered statistically significant.

E. coli 25922 [17] = test: Ethidium bromide permeability assay; type: cell-based, Escherichia coli; conditions: t=20 minutes
Experimental: Ethidium bromide permeability assays were performed as follows: Overnight cultures were adjusted to 1.0 OD (600 nm) and centrifuged for 5 minutes at 15,000 g. Pellets were washed twice with PBS containing 0.5% glucose, resuspended, and incubated for 10 minutes at 37° C. with shaking. A […] suspension was mixed in a black 96-well plate with […] of the tested compound and ethidiumbromide (1 μg/ml), and the fluorescence was recorded (excitation 535 nm, emission 590 nm) for up to 30 minutes at 37° C. with shaking. Data were obtained from at least 2 independent experiments.
(FU denotes fluorescence units; triangles denote Compound B, circles denote PMB, squares denote untreated control; error bars=SD).

[18] = 20 mg/kg body weight; reported; cited from earlier work

In the case of `CCCCCCCCCC(=O)NC(CCCCN)C(=O)NC(CCCCN)C(=O)NCCCCCCCCCCCC(=O)NC(CCCCN)C(N)=O` (centres unmarked) [Compound A] (Decanoyl-KK[12Ado]K-NH2; configuration not given here), the “Q, charge at physiological pH” value [1] is reported as 3, the “H, hydrophobicity” value [2] is reported as 44% and the “CAC, critical aggregation concentration” value [3] is reported as >100 µM. For the same compound, the CC50 at 3 h (Hemolytic assay) was > 100 µM, the MIC (Escherichia coli 25922 [4]; 25922) was > 50 µM and the MIC (Escherichia coli ML35p) was > 50 µM. For the same compound, the MIC [5]; 1287 was > 50 µM, the MIC [6] was > 50 µM and the MIC [7]; 11662 was > 50 µM. For the same compound, the MIC [8]; 11816 was > 50 µM, the MIC ([9]; CHOLERAESUIS / SC7308) was > 50 µM and the MIC [10] was > 50 µM. The cytoplasmic membrane permeabilization [11] was “similarly unable to permeabilize the cytoplasmic membrane at least up to approximately 10 μM” and the outer membrane permeabilization [11] was “similarly potent in inducing outer membrane permeabilization”.
In the case of `CCCCCCCCCC(=O)NC(CCCNC(=N)N)C(=O)NC(CCCNC(=N)N)C(=O)NCCCCCCCCCCCC(=O)NC(CCCNC(=N)N)C(N)=O` (centres unmarked) [Compound C] (Decanoyl-RR[12Ado]R-NH2; configuration not given here), the “Q, charge at physiological pH” value [1] is reported as 3, the “H, hydrophobicity” value [2] is reported as 46% and the “CAC, critical aggregation concentration” value [3] is reported as >100 µM. It also gave a CC50 at 3 h (Hemolytic assay) of 80 ± 1 µM, an MIC (Escherichia coli 25922 [4]; Ec 25922, overnight incubation, read-out: MIC) of 25 µM (≈ 20.9 µg/mL) and an MIC (Escherichia coli ML35p) of 12.5 µM (≈ 10.5 µg/mL). For the same compound, the MIC ([5]; Kp 1287, overnight incubation, read-out: MIC) was 50 µM (≈ 41.9 µg/mL), the MIC ([6]; Kp C2, overnight incubation, read-out: MIC) was > 50 µM and the MIC ([7]; Pa 11662, overnight incubation, read-out: MIC) was 50 µM (≈ 41.9 µg/mL). For the same compound, the MIC ([8]; Pa 11816, overnight incubation, read-out: MIC) was 50 µM (≈ 41.9 µg/mL), the MIC ([9]; CHOLERAESUIS / SC7308, SC 7308, overnight incubation, read-out: MIC) was > 50 µM and the MIC ([10]; ST 14028, overnight incubation, read-out: MIC) was > 50 µM. The cytoplasmic membrane permeabilization [11] was “somewhat higher tendency for cytoplasmic membrane damaging”.
With `CC[C@H]1OC(=O)[C@H](C)[C@@H](O[C@H]2C[C@@](C)(OC)[C@@H](O)[C@H](C)O2)[C@H](C)[C@@H](O[C@@H]2O[C@H](C)C[C@H](N(C)C)[C@H]2O)[C@](C)(O)C[C@@H](C)C(=O)[C@H](C)[C@@H](O)[C@]1(C)O` [Erythromycin, erythromycin] the “efficacy of combination vs individual administrations” value (Escherichia coli 25922 [12]) was “clearly more effective in combination”, the “Antibiotic MIC in the presence of Compound B” value (from here on “Antibiotic MIC in the presence”) (E. coli strain 14182; Compound B 2.5 μM) was 16 mg/L and the “Antibiotic MIC in the presence” value (E. coli strain 14182; Compound B 5 μM) was 4 mg/L. The “Antibiotic MIC in the presence” value (E. coli strain 14182; Compound B 10 μM) was 1 mg/L, the “Antibiotic MIC in the presence” value (E. coli strain 14384; Compound B 0 μM) was >512 mg/L and the “Antibiotic MIC in the presence” value (E. coli strain 14384; Compound B 2.5 μM) was 2 mg/L. For the same compound, the “Antibiotic MIC in the presence” value (E. coli strain 14384; Compound B 5 μM) was 1 mg/L, the “Antibiotic MIC in the presence” value (E. coli strain 14384; Compound B 10 μM) was 0.5 mg/L and the “Antibiotic MIC in the presence” value (E. coli strain 14384; Compound B […]) was 64 mg/L. For the same compound, the “Antibiotic MIC in the presence” value (E. coli strain 16327; Compound B 0 μM) was 512 mg/L, the “Antibiotic MIC in the presence” value (E. coli strain 16327; Compound B 2.5 μM) was 4 mg/L and the “Antibiotic MIC in the presence” value (E. coli strain 16327; Compound B 5 μM) was 1 mg/L. For the same compound, the “Antibiotic MIC in the presence” value (E. coli strain 16327; Compound B 10 μM) was 0.5 mg/L, the “Antibiotic MIC in the presence” value (E. coli strain 16327; Compound B […]) was 64 mg/L and the “Antibiotic MIC in the presence” value (E. coli strain 25922; Compound B 2.5 μM) was 2 mg/L. The “Antibiotic MIC in the presence” value (E. coli strain 25922; Compound B 5 μM) was 0.5 to 1 mg/L, the “Antibiotic MIC in the presence” value (E. coli strain 25922; Compound B 10 μM) was 0.25 mg/L and the “Antibiotic MIC in the presence” value (E. coli strain 25922; Compound B […]) was 8 mg/L. For the same compound, the “Antibiotic MIC in the presence” value (E. coli strain 35218; Compound B 2.5 μM) was 4 mg/L, the “Antibiotic MIC in the presence” value (E. coli strain 35218; Compound B 5 μM) was 1 mg/L and the “Antibiotic MIC in the presence” value (E. coli strain 35218; Compound B 10 μM) was 0.5 mg/L. The “Antibiotic MIC in the presence” value (E. coli strain 35218; Compound B […]) was 64 mg/L, the “effect of delayed exposure on sensitization by Compound B” value (E. coli 25922 [13]) was “delay by up to 60 (but not 120) minutes revealed maintenance of the sensitization activity” and the “effect on CFU count” value (E. coli 25922 [14]; LB broth, 24-hours end point, erythromycin 3 μg/ml combined with Compound B 0.6 μM) was “did not alter the CFU count”. The “time to accomplish the CFU reduction (more than 3 log units)” value (E. coli 25922 [14]; human plasma, antibiotic with Compound B 0.6 μM) was ≤ 3 hours, the “combined action with Compound B” value (E. coli 25922 [14]; mouse plasma, 24 hours end point, Compound B 10 μM with rifampin 1 μg/ml or erythromycin 3 μg/ml) was “expressed synergism of action” and the Plasma concentration ([15]; 0.5 h) was 3.7 µg/mL. The Plasma concentration ([15]; 1 h) was 2.3 µg/mL and the Plasma concentration ([15]; 2 h) was 0.4 µg/mL.
For polymyxin B [PMB], the “reduction of the number of inoculated E. coli” value (Escherichia coli 25922 [16]) is listed as 64%, the “CM permeability to ethidium bromide” value (E. coli 25922 [17]) is listed as “increased significantly more than Compound B” and the mortality [18] is listed as “zero”.
